Results reported in patent publication US4996314A, “6-(disubstituted amino)carbapenem compounds” (Sanraku Incorporated, priority 1986, dated 1991).

Experiments:
Test in all cases: Antimicrobial activity (MIC), agar diluting method
Assay type in all cases: cell-based
[1] = system: Micrococcus luteus (ATCC 9341); settings: ATCC9341, Mueller Hinton agar, 35° C., 18 hours
Method: (§1) (1) Antimicrobial activity test
(§2) The antimicrobial activity was measured by the agar diluting method in accordance with the Standardized Method of the Japanese Society of Chemotherapy. A twofold dilution of a test compound was prepared by using M/50 phosphate buffer (pH 7.0). One milliliter of this solution and 9 ml of a Mueller Hinton agar medium (made by Difco Laboratories were mixed in a Petri dish having a diameter of 9 cm to prepare plates. A test microorganism was cultured overnight in a stationary condition at 35° C. in a Mueller-Hinton broth (made by Difco) and diluted with physiological saline to provide a cell density of about 10 ^6 cells/ml. Five microliter of the microorganism suspension was inoculated on the agar plates using a microplanter (made by Sakuma Seisakusho). The plates were incubated at 35° C. for 18 hours. The lowest concentration of the test compound at which the growth of the microorganism was completed inhibited is defined as the minimum inhibitory concentration (MIC) of the test compound against the test organism.

[2] = system: Staphylococcus aureus (FDA 209 p); settings: FDA209, Mueller Hinton agar, 35° C., 18 hours
Method: as §1, §2

[3] = system: Comamonas terrigena (B 996); settings: Mueller Hinton agar, 35° C., 18 hours
Method: as §1, §2

[4] = system: Bacillus subtilis (ATCC 6633); settings: ATCC6633, Mueller Hinton agar, 35° C., 18 hours
Method: as §1, §2

Structure (SMILES) | MIC [1] | MIC [2] | MIC [3] | MIC [4]
COC(=O)N(C)[C@H]1C(=O)N2C(C(=O)O)=C(SCCNC(C)=O)C[C@H]12 [[22], sodium (5R,6R)-6-(N-carbomethoxy-N-methyl)amino-3-acetamidoethylthio-1-azabicyclo[3.2.0]hept-2-ene-7-one-2-carboxylate] | 3.13 µg/mL | 0.39 µg/mL | 0.39 µg/mL | 6.25 µg/mL
CC(=O)NCCSC1=C(C(=O)O)N2C(=O)[C@H](N(C)C(=O)OCc3ccccc3)[C@H]2C1 [[14], sodium (5R,6R)-3-(2-acetamidoethylthio)-6-(N-benzyloxycarbonyl)methylamino-7-oxo-1-azabicyclo[3.2.0]hept-2-ene-2-carboxylate] | 1.56 µg/mL | 0.2 µg/mL | 1.56 µg/mL | 1.56 µg/mL
CC(=O)NCCSC1=C(C(=O)O)N2C(=O)[C@H](N(C)S(C)(=O)=O)[C@H]2C1 [[29], sodium (5R,6R)-3-(2-acetamidoethylthio)-6-(N-methanesulfonyl)methylamino-7-oxo-1-azabicyclo[3.2.0]hept-2-ene-2-carboxylate] | 0.78 µg/mL | 0.2 µg/mL | 3.13 µg/mL | 1.56 µg/mL
